Assay results as given in patent US20250090174A1, “LEFT ATRIAL APPENDAGE CLOSURE DEVICE WITH DRUG-ELUTING COMPOSITION” (BOSTON SCIENTIFIC SCIMED, INC., priority 2023, published 2025).

Tested on: heparinized bovine blood
Test: In-vitro clot weight on drug coated PET fabric disks in heparinized bovine blood
Settings: PVDF-HFP/drug 90/10 dip coated PET disks, 37° C., ACT about 190, FIG. 18
Method: A solution of PVDF-HFP and DOAC (direct oral anticoagulant) was prepared in 80/20 acetone/DMSO (wt/wt). The PVDF-HFP drug ratio was 90/10 (wt/wt) and the solution solids was 0.7%. […] diameter WM PET fabric disks were dip coated into the polymer/drug solution at a dip speed of […]. The coated disks were dried for […] at 125° C. in a convection oven. The drug coated disks and PVDF-HFP only control disks were placed in cups containing heparinized bovine blood adjusted to an ACT of about 190 using protamine. The cups were placed on an orbital shaker incubator at 37° C. and disks were removed at various time points and imaged. The disks were then dried and weighed to determine clot wt.

Row | Compound | thrombus (clot weight) compared to the PVDF-HFP coated control
1 | COc1ccc(-n2nc(C(N)=O)c3c2C(=O)N(c2ccc(N4CCCCC4=O)cc2)CC3)cc1 [Apixaban] | significantly less thrombus
2 | O=C(NC[C@H]1CN(c2ccc(N3CCOCC3=O)cc2)C(=O)O1)c1ccc(Cl)s1 [Rivaroxaban, 5-Chloro-N-({(5S)-2-oxo-3-[4-(3-oxo-4-morpholinyl)phenyl]-1,3-oxazolidin-5-yl}methyl)-2-thiophenecarboxamide] | significantly less thrombus
